Assay results from ChEMBL document CHEMBL1201862, “PubChem BioAssay data set” (2004).
The source made the active and inactive calls.

Columns and labels:
[1] = Late stage assay provider results from the probe development effort to identify inhibitors of the Plasmodium falciparum M17 Leucine Aminopeptidase (M17LAP): radiolabel-based cell-based dose response assay to identify compounds that inhibit P. falciparum growth in RBCs Set 2.; type: functional
[2] = HepG2 cell cytotoxicity, dose response, cytotoxicity control, cherry-picks, set 5 (AID 1053118); type: functional, cell-based
[3] = T. cruzi growth inhibition in host cells, dose response, cell-based, plate reader, dry powder, set 2 (AID 652275); type: functional
[4] = A375 melanoma cell viability loss, dose response, counter-screen for MITF inhibitor project, CellTiter-Glo luminescence, dry powder, set 4 (AID 624364); type: functional, cell-based; settings: A-375;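 also: A375 melanoma cells are MITF independent so this is a counter screen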
[5] = A375 melanoma cell cytotoxicity, dose response, counter-screen for MITF inhibitor project, CellTiter-Glo luminescence, dry powder, set 2 (AID 624489); type: functional, cell-based; settings: A-375;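 also: actives are compounds lowering A375 viability meaning general cytotoxicity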
[6] = Late stage assay provider results from the probe development effort to identify selective inhibitors of heat shock protein 90 (HSP90): Absorbance-based cell proliferation assay in SKBR3 cells.; type: functional; settings: SK-BR-3
[7] = Late stage assay provider results from the probe development effort to identify selective inhibitors of heat shock protein 90 (HSP90): Absorbance-based cell proliferation assay in MCF7 cells.; type: functional
[8] = NIH/3T3 fibroblast cytotoxicity, dose response, cytotoxicity control, cell-based, plate reader, dry powder, set 2 (AID 652280); type: functional; settings: NIH3T3
[9] = PAX2 cell-based inhibition, dose response, selectivity assay for PAX8 inhibitor project, plate reader, dry powder samples (AID 743048); type: functional;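 also: HEK293 cells carrying a WT1 promoter luciferase reporter driven by expressed Pax2; potency is for inhibition of Pax2 driven reporter signal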
[10] = PAX5 activity inhibitors, dose response, selectivity assay for PAX8 inhibitor project, cell-based, plate reader, dry powder samples (AID 743047); type: functional;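 also: HEK293 cells carrying a Pax5 driven CD19 promoter luciferase reporter; potency of inhibitors that lower reporter luminescence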
[11] = cytotoxicity in COV434 cells, dose response, cytotoxicity control for PAX8 inhibitor project, cell-based, plate reader, dry powder, SA7 (AID 743145); type: functional
[12] = cytotoxicity dependent on PAX8, dose response, cell-based, plate reader, dry powder (AID 743049); type: functional
[13] = HIV Env cell-cell fusion inhibitors, dose response, HIV entry, plate reader, dry powder (AID 687023); type: functional, cell-based
[14] = CEM21 cell cytotoxicity, dose response, cytotoxicity control, plate reader, dry powder (AID 687026); type: functional, cell-based
[15] = inhibitors of intracellular T. cruzi replication, confirmation, NIH3T3 host cells, beta-gal luminescence (AID 2044); type: functional, cell-based;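 also: intracellular parasites grown in NIH/3T3 mouse fibroblasts as host cells; luminescent beta-galactosidase reporter signal from transgenic T. cruzi replicating inside host cells; inhibitors lower the luminescence signal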
[16] = cytotoxicity toward NIH3T3 fibroblasts, dose response, counter-screen, cell-based, ATP luminescence, mouse fibroblasts (AID 2010); type: functional;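 also: cells exposed to compound for about 90 hours before reading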
[17] = target: DNA repair and recombination protein RAD54-like (Homo sapiens, UniProt Q92698); test: inhibitors of human RAD54 branch migration, confirmation, biochemical, fluorescence, cherry-picked samples, dose series (AID 651657); type: functional
[18] = target: E3 ubiquitin-protein ligase UHRF1 (Homo sapiens, UniProt Q96T88); test: Counterscreen for inhibitors of 5-meCpG-binding domain protein 2 (MBD2): TRFRET-based biochemical high throughput dose response assay to identify inhibitors of binding of ubiquitin-like with PHD and ring finger domains 1 (UHRF1) to methylated oligonucleotide.
Sequence of E3 ubiquitin-protein ligase UHRF1 (Q96T88 whole entry, the tested form may be a part): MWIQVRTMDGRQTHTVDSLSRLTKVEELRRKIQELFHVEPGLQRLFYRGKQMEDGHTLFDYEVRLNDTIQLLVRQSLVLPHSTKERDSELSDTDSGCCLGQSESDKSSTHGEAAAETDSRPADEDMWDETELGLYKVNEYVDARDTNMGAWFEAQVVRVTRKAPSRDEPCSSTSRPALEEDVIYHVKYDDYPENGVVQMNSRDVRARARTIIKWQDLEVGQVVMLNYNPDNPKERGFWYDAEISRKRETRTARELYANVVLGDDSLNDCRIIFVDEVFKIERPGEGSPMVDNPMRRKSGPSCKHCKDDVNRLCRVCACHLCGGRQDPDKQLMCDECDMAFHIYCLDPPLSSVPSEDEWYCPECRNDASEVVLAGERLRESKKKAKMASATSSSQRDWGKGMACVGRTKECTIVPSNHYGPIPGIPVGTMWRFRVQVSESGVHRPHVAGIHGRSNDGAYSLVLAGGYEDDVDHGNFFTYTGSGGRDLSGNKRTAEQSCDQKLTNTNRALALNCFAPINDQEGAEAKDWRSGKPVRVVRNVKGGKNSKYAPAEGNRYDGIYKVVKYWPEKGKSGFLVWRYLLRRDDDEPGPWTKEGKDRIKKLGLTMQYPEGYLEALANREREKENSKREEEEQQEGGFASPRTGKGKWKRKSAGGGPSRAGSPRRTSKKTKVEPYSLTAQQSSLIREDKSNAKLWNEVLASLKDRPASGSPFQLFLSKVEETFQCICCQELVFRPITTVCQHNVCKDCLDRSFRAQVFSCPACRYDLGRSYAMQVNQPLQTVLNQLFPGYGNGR

Sequence of DNA repair and recombination protein RAD54-like (Q92698 whole entry, the tested form may be a part): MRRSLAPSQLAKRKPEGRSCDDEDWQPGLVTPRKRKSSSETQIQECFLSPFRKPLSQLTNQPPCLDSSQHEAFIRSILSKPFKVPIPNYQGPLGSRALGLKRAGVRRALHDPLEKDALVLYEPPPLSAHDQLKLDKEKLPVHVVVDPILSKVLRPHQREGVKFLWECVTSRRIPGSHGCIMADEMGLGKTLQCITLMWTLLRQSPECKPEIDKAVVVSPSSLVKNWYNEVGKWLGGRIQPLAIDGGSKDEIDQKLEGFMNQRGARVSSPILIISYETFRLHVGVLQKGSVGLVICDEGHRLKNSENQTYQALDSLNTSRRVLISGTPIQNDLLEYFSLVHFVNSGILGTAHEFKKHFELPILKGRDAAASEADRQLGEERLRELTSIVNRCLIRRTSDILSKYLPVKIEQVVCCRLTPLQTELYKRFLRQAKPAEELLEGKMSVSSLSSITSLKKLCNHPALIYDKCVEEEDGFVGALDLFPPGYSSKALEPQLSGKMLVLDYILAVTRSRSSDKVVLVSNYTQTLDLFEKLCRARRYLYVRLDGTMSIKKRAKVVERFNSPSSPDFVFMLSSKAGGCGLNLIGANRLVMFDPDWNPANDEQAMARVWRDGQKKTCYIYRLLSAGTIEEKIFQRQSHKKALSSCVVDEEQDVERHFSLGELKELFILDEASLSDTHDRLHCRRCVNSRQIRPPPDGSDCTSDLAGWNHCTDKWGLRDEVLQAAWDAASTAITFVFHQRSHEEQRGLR

With `Cc1ccc(CC(=O)NO)cc1` as the compound, how does the IC50 [1] read?
Its IC50 is 16.3 µM (inactive).

For `N#C[C@H]1[C@@H](c2ccccc2C2=CCCCC2)[C@@H](CO)N1S(=O)(=O)c1ccccc1`, which AC50 [2] is on record?
Its AC50 is > 47 µM (inactive).

For `CC(c1ccc(Cl)cc1)N(C)C[C@@H]1CN(C(C)C)C(=O)c2cccc(NC(=O)c3ccncc3)c2O1` (stereo partly drawn), which AC50 [3] is on record?
Its AC50 is 0.0548 µM (active).

With `CN1CCN(C2=C(NS(=O)(=O)c3ccc(Br)cc3)C(=O)c3ccccc3C2=O)CC1` as the compound, how does the AC50 [4] read?
The AC50 was > 70 µM (inactive).

And the AC50 [5]?
Its AC50 is > 70 µM (inactive).

What does the source list for `COc1ccc(N/C=C2\C(=O)OC(=O)c3ccccc32)cc1`?
IC50 [6]: > 100 µM (inactive); IC50 [7]: > 100 µM (inactive)

For `Cc1cccc(-c2ccc([C@H]3[C@H](CO)N4CCCCN(Cc5ccncc5)C[C@@H]34)cc2)c1`, which AC50 [8] is on record?
The AC50 was 8.54 µM (active).

With `N#C[C@H]1[C@@H](c2ccc(C3=CCCC3)cc2)[C@@H](CO)N1C(=O)NC1CCCCC1` as the compound, how does the AC50 [9] read?
Its AC50 is 52.1 µM (active).

What about the AC50 [10] of the same compound?
Its AC50 is > 70 µM (inactive).

And the AC50 [11]?
Its AC50 is > 70 µM (inactive).

What about the AC50 [12] of the same compound?
Its AC50 is 61.5 µM (active).

With `Cc1noc(C)c1S(=O)(=O)Nc1cccc2c1O[C@H](CN(C)Cc1ccc(C(F)(F)F)cc1)[C@H](C)CN([C@@H](C)CO)C2=O` as the compound, how does the AC50 [13] read?
The AC50 was 10.6 µM (active).

What about the AC50 [14] of the same compound?
The AC50 was > 70 µM (inactive).

Which EC50 [15] does the source give for `Cc1ccc2nc(Cl)c3cc(C(=O)NCCCN4CCCC4)sc3c2c1` here?
The EC50 was 1.65 µM (active).

What about the EC50 [16] of the same compound?
Its EC50 is 9.72 µM (active).

What about the AC50 [17] of the same compound?
Its AC50 is 11.4 µM (active).

What about the IC50 [18] of the same compound?
Its IC50 is > 43.8 µM (inactive).
